These results are taken from patent US7129213B2, “Tripeptides and tripeptide derivatives for the treatment of neurodegenerative diseases” (Neurotell AG, priority 2002, dated 2006).

The test system of data set [1] is rat treated by Gp120 as intracerebroventricular injection. Put plainly: Gp120 model, sound avoidance conditioning. It counts as in vivo. The conditions noted are these: for AUC (average area under the learning curve per day) / percentage of adequate responses D0 / percentage of adequate responses D3 / percentage of adequate responses D4: Gp120 ICV; for percentage of adequate responses D0: learning day D0; for percentage of adequate responses D3: learning day D3; for percentage of adequate responses D4: learning day D4. How it is done: Day 0. The animals were slightly anesthetized by ether, an incision was made into the skin of the skull, and the skull was pierced by means of a dental burr. A metal needle was stereotaxically directed to the lateral ventricle, and then fixed by means of dental cement. Every day of the experiment, the patency of the needle was controlled.
Day 3. Three days after introducing the needle (recovery from the postoperative shock) the animals received an intra-ventricular injection of 10 nM/kg/day of Gp120 (dissolved in normal saline) in a volume of 20 μl. This administration was repeated daily for a period of five days.
Day 18. Ten days after the last administration of Gp120, the rats were chloralized (360 mg/kg). A permanent floating catheter was retrogradely introduced into the common carotid artery. This catheter left again on the top of the skull, where it was fixed.
Day 21. Three days later (recovery from the postoperative shock), the 30 rats were randomly divided into three group of 10 animals each: • the first group of 10 rats received an intracarotid injection of 1 ml/kg/day of normal saline for a period of 10 days. • the second group of 10 rats received 10 mg/kg/day of HCl-Gly-Phe-ProNH2 (dissolved in normal saline) for a period of 10 days. • the third group received 20 mg/kg/day of HCl-Gly-Phe-ProNH2 under the same conditions. The injections were given between 9.00 and 9.30 a.m.
Day 26 to 30. The animals of all three groups were placed under the common learning conditions of the entire protocol. The learning sessions took place between 10.00 a.m. and 11.00 a.m.
During the last five days of treatment, at 10.00 a.m. (1 hour after the administration of HCl-Gly-Phe-ProNH2), the animals were placed into a learning cage for sound avoidance conditioning (Conditioning avoidance response). The animals learned to climb a pole first to escape from and then to avoid an electric shock. This method was standardized and quantified in our laboratory (see Le Poncin M., Lafitte J. C., Rapin J. R., Sound Avoidance Conditioning and a Mathematical approach to the description of acquisition performance, Math. Biosciences 59 (1982) 242–268).
For a period of five days, the animals were placed everyday under these learning conditions for a total of ten tests a day. Results are expressed as percentage of adequate responses, and the kinetics of the responses is represented by a multi-exponential maximum curve.
The curve maximum represents the learning capacities. The slope of the curve evaluates the learning speed. The area under the curve (AUC) represents a good evaluation of all conditioning parameters. The maximum value of the area under the curve is 500, if the animals show 100% adequate responses as early as Day 0. In fact, an average area under the curve is calculated per day, what amounts to a maximum value of 100. In the absolute control animals, this average area under the curve is equal to 40+/−4.

For data set [2] the following is noted: PAMPA. A general note: PAMPA measures passive passage across an artificial lipid membrane.
From the text: The Parallel Artificial Membrane Permeation Assay system (PAMPA) is a simple and fast method for the prediction of gastrointestinal drug absorption. Drug permeation of biological cell layers is mainly related to passive diffusion processes. The PAMPA method measures the permeation of potential new drugs across an artificial membrane by passive diffusion and allows a classification into low, medium and high absorbers.
The artificial membrane was built up by pipetting a solution of lecithine in organic solvent on a supporting filter material in 96-well plates. For all test compounds, stock solutions of 5 mM were prepared in ethanol. They were then diluted in Tris-buffer (0.05 M, pH 7,4) to a final concentration of 500 μM. Permeation rates of all test compounds were measured in triplicate or quadruplicate. Diffusion time across the artificial membrane was 16 h. For all compounds reference values without phospholipid layer were individually determined. Concentrations in the acceptor compartments were measured by UV difference spectroscopy using a microtiter plate reader Spectramax Plus^384 from Molecular Devices. For each compound the λmax values were determined in a previous run and measurements were performed at this wavelength. The permeation rates are expressed as flux rates, which are calculated according to the following formula: flux (%)=OD (test well)/OD (control well)×100. […] Lucifer Yellow, a non-permeating dye, has been applied to each well postexperimentally and the concentration of the marker measured in a Wallac Victor^2 1420 Multilabel Counter. Wells, in which the concentration of Lucifer Yellow exceeded 1% of the amount detected in the control wells (without artificial membrane) were discarded.

Molecules are shown by their SMILES. Where a name gives a salt, the structure may show the parent alone. Where a SMILES comes first, the peptide text is derived from it.

Regarding `NCC(=O)N[C@@H](Cc1ccccc1)C(=O)N1CCC[C@H]1C(N)=O` [HCl-Gly-Phe-ProNH2, glycyl-L-phenylalanyl-L-prolineamide] (H-Gly-Phe-Pro-NH2), in data set [1] (10 mg/kg/day 10 days), the “AUC (average area under the learning curve per day)” value is listed as “**23.8 +/− 4.1”, the “percentage of adequate responses D0” value is on record as 0%, the “percentage of adequate responses D3” value is listed as “**35 +/− 4%” and the “percentage of adequate responses D4” value is “**55 +/− 7%”. In addition, in data set [1] (20 mg/kg/day 10 days), the “AUC (average area under the learning curve per day)” value is “**29.6 +/− 3.0”, the “percentage of adequate responses D0” value stood at 0%, the “percentage of adequate responses D3” value is “**48 +/− 5%” and the “percentage of adequate responses D4” value was “**70 +/− 5%”. In addition, in data set [1] (Gp120 model, 10 and 20 mg/kg), the “effect on learning parameters” value is listed as “restores the capacities of the animal depending on the dose”. For the same compound, in data set [2], the “PAMPA classification, predicted absorption after peroral application” value is given as “weakly absorbed”.
